This assay addresses PAR1 (Homo sapiens (Human), UniProt P25116). Put plainly: PAR1 binding test (radioligand displacement, membrane preparation). As to conditions: human PAR1 expressed in High Five insect cell membranes; radioligand 20 nM; read-out: Inhibition of binding IC50. The protocol: The synthesized substances were examined in a PAR1 binding test. This tested whether the substances can inhibit the binding of a radioactively labeled PAR1 agonist known from the literature at the PAR1 receptor (Ho-Sam Ahn, Mol Pharm, 51:350-356, 1997). The human PAR1 receptor was expressed transiently in High Five insect cells. From these cells, after 48 hours, a membrane preparation was produced by standard methods, aliquoted into 10 mM Tris-HCl; 0.3 mM EDTA; 1 mM EGTA; 250 mM sucrose pH 7.5, and stored at −80° C.
The substances were preincubated with the membrane at room temperature for 15 minutes, then the radioligand (ALA-(para-F-Phe)-Arg-ChA-homoArg-(3,4-^3H-Tyr)-NH2; approx. 40 Ci/mMol) was added. The end concentration of the radioligand in the test buffer (50 mM Tris-HCl; 10 mM MgCl2; 1 mM EGTA; 0.1% BSA; 2% DMSO) was 20 nM, that of the membrane 1 mg/ml. After an incubation time of 60 minutes, 25 μL of the mixture were transferred to a 96-well MultiScreenHTS FB microtiter filtration plate (from Millipore), which had been pretreated beforehand with a 0.75% aqueous polyethyleneimine solution for 5 hours at room temperature. Thereafter, with vacuum extraction, each well was washed four times with 300 μL of buffer (50 mM Tris-HCl; 10 mM MgCl2; 1 mM EGTA). The plate was then dried overnight, 100 μl of scintillator per well were added, and the plate was analyzed after 6 hours in a Wallac MicroBeta (from PerkinElmer) liquid scintillation counter. The nonspecific binding was determined in the presence of 100 μM SCH79797 (PAR-1 antagonist; from Tocris, Cat. No. 1592) and subtracted from all measurements. The 100% value used was a control without inhibitor. The % inhibition values of a substance dilution series were used to calculate the IC50 with the aid of nonlinear regression analysis according to the 4-parameter equation.
On the technique in general: Loss of bound radioactivity is the signal in a displacement assay; it reports binding, not function.

Where a name gives a salt, the structure may show the parent alone.

Sequence of PAR1 (P25116 22-425): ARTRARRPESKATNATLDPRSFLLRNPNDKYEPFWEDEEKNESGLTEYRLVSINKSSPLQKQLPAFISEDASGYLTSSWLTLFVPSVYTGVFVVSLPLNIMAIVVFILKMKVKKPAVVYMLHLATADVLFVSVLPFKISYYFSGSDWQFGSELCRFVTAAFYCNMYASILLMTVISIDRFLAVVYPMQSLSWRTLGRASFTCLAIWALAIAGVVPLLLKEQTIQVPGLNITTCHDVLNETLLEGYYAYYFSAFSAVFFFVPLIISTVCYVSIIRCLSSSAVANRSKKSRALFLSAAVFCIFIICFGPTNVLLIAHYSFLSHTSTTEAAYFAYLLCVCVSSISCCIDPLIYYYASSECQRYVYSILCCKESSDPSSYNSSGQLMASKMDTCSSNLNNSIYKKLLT

By IC50 is commonly meant the concentration that inhibits the measured activity by half. `CCC(CC)Oc1cc(C)c2nn(CC(=O)c3cc(OCCO)c(OC)c(C(C)(C)C)c3)c(=N)n2n1` [Example 117, 1-[3-tert-butyl-5-(2-hydroxy-ethoxy)-4-methoxyphenyl]-2-[6-(1′-ethylpropoxy)-3-imino-8-methyl-[1,2,4]triazolo[4,3-b]-pyridazin-2-yl]ethanone hydrochloride]: the IC50 is 98 nM.

On to `CCOc1nn2/c(=N/C)n(CC(=O)c3cc(OCCO)cc(C(C)(C)C)c3)nc2c(C)c1C` [Example 163, 1-[3-tert-butyl-5-(2-hydroxy-ethoxy)phenyl]-2-{6-ethoxy-7,8-dimethyl-3-[(E)-methylimino]-[1,2,4]triazolo[4,3-b]pyridazin-2-yl}ethanone hydrochloride], for which the IC50 was 364 nM. Regarding `CCNC(=O)c1nn2/c(=N/C)n(CC(=O)c3cc(OCCCO)c(OC)c(C(C)(C)C)c3)nc2c(C)c1C` [Example 239, N-ethyl-2-{2-[3-tert-butyl-5-(3-hydroxypropoxy)-4-methoxy-phenyl]-2-oxoethyl}-7,8-dimethyl-3-[(E)-methylimino]-2,3-dihydro-[1,2,4]triazolo[4,3-b]pyridazine-6-carboxamide hydrochloride], the IC50 was 113 nM. The value for `CCOc1nn2c(=N)n(CC(=O)c3cc(OCCCO)c(OC)c(C(C)(C)C)c3)nc2c(CC)c1CC` [Example 197, 1-[3-tert-butyl-5-(3-hydroxy-propoxy)-4-methoxyphenyl]-2-(6-ethoxy-7,8-diethyl-3-imino-[1,2,4]triazolo[4,3-b]pyridazin-2-yl)ethanone hydrochloride] was 149 nM; that for `CCOc1cc(C)c2nn(CC(=O)c3cc(OC(COC)COC)cc(C(C)(C)C)c3)c(=N)n2n1` [Example 127, 1-[3-tert-butyl-5-(2-methoxy-1-methoxymethylethoxy)phenyl]-2-(6-ethoxy-3-imino-8-methyl-[1,2,4]triazolo[4,3-b]pyridazin-2-yl)ethanone hydrochloride] was 2500 nM. As to `Cc1c(OC(C)C)nn2c(=N)n(CC(=O)c3cc(OCCO)cc(C(C)(C)C)c3)nc2c1C` [Example 215, 1-[3-tert-butyl-5-(2-hydroxy-ethoxy)phenyl]-(3-imino-6-isopropoxy-7,8-dimethyl-[1,2,4]triazolo[4,3-b]pyridazin-2-yl)ethanone hydrochloride], the IC50 is 219 nM. As for `CCC(CC)Oc1ccc2nn(CC(=O)c3cc(OCC4CC4)cc(C(C)(C)C)c3)c(=N)n2n1` [Example 26, 1-(3-tert-butyl-5-cyclopropylmethoxyphenyl)-2-[6-(1-ethylpropoxy)-3-imino-[1,2,4]triazolo[4,3-b]pyridazin-2-yl]ethanone hydrochloride], the concentration for half-maximal inhibition (IC50) amounted to 1100 nM.

With `Cc1cc(OCC2(C)COC2)nn2c(=N)n(CC(=O)c3cc(OCCO)cc(C(C)(C)C)c3)nc12` [Example 236, 1-[3-tert-butyl-5-(2-hydroxy-ethoxy)phenyl]-2-[3-imino-8-methyl-6-(3-methyloxetan-3-ylmethoxy)-[1,2,4]triazolo[4,3-b]-pyridazin-2-yl]ethanone hydrobromide], the IC50 worked out at 1400 nM. As for `CCOc1nn2c(=N)n(CC(=O)c3cc(OC)cc(S(F)(F)(F)(F)F)c3)nc2cc1N(CC)CC` [Example 84, 2-(7-diethylamino-6-ethoxy-3-imino-[1,2,4]triazolo[4,3-b]pyridazin-2-yl)-1-[3-methoxy-5-(pentafluorosulfanyl)-phenyl]ethanone trifluoroacetic acid salt], the concentration for half-maximal inhibition (IC50) came to 9800 nM.

On to `CCC(CC)Oc1ccc2nn(CC(=O)c3cc(OCCOC)cc(C(C)(C)C)c3)c(=N)n2n1` [Example 50, 1-[3-tert-butyl-5-(2-methoxy-ethoxy)phenyl]-2-[6-(1-ethylpropoxy)-3-imino-[1,2,4]triazolo[4,3-b]pyridazin-2-yl]ethanone hydrochloride], for which the IC50 amounted to 631 nM.

As for `COc1c(N2CCOCC2)cc(C(=O)Cn2nc3ccc(Cl)nn3c2=N)cc1C(C)(C)C` [Example 56, 1-(3-tert-butyl-4-methoxy-5-morpholin-4-ylphenyl)-2-(6-chloro-3-imino-[1,2,4]triazolo-[4,3-b]pyridazin-2-yl)-ethanone trifluoroacetic acid salt], the IC50 stood at 24000 nM. Turning to `CCOc1nn2c(=N)n(CC(=O)c3cc(OCCCCO)c(OC)c(C(C)(C)C)c3)nc2c(C)c1C` [Example 178, 1-[3-tert-butyl-5-(4-hydroxy-butoxy)-4-methoxyphenyl]-2-(6-ethoxy-3-imino-7,8-dimethyl-[1,2,4]triazolo[4,3-b]pyridazin-2-yl)ethanone hydrochloride], the IC50 came to 126 nM. As to `COc1c(OCCCCO)cc(C(=O)Cn2nc3c(C)cc(OCC4CC4)nn3c2=N)cc1C(C)(C)C` [Example 199, 1-[3-tert-butyl-5-(4-hydroxy-butoxy)-4-methoxyphenyl]-2-(6-cyclopropylmethoxy-3-imino-8-methyl-[1,2,4]triazolo[4,3-b]pyridazin-2-yl)ethanone hydrochloride], the IC50 is 206 nM. Take `CCOc1cc(C(C)(C)O)c2nn(CC(=O)c3cc(OCCCO)c(OC)c(C(C)(C)C)c3)c(=N)n2n1` [Example 168, 1-[3-tert-butyl-5-(3-hydroxy-propoxy)-4-methoxyphenyl]-2-[6-ethoxy-8-(1-hydroxy-1-methyl-ethyl)-3-imino-[1,2,4]triazolo[4,3-b]pyridazin-2-yl]ethanone hydrochloride]: the IC50 amounted to 257 nM.

For the molecule `CCOc1cc(CC)c2nn(CC(=O)c3cc(OCCCO)c(OC)c(C(C)(C)C)c3)c(=N)n2n1` [Example 174, 1-[3-tert-butyl-5-(3-hydroxy-propoxy)-4-methoxyphenyl]-2-(6-ethoxy-8-ethyl-3-imino-[1,2,4]triazolo[4,3-b]pyridazin-2-yl)ethanone hydrochloride], the IC50 came out at 183 nM. Take `CCNC(=O)c1nn2/c(=N/C)n(CC(=O)c3cc(OCCO)c(OC)c(C(C)(C)C)c3)nc2c(C)c1C` [Example 207, N-ethyl-2-{2-[3-tert-butyl-5-(2-hydroxyethoxy)-4-methoxy-phenyl]-2-oxoethyl}-7,8-dimethyl-3-[(E)-methylimino]-2,3-dihydro-[1,2,4]triazolo[4,3-b]pyridazine-6-carboxamide hydrochloride]: the half-maximal inhibitory concentration (IC50) turned out to be 174 nM. On to `CCC(CC)Oc1cc(C)c2nn(CC(=O)c3cc(OCCO)cc(S(F)(F)(F)(F)F)c3)c(=N)n2n1` [Example 161, 2-[6-(1-ethylpropoxy)-3-imino-8-methyl-[1,2,4]triazolo[4,3-b]pyridazin-2-yl]-1-[3-(2-hydroxy-ethoxy)-5-(pentafluorosulfanyl)-phenyl]ethanone trifluoroacetic acid salt], for which the IC50 was found to be 365 nM. Consider `CCOc1nn2c(=N)n(CC(=O)c3cc(C(C)(C)C)cc(C(C)(C)OC)c3)nc2c(C)c1C` [Example 230, 1-[3-tert-butyl-5-(1-methoxy-1-methylethyl)phenyl]-2-(6-ethoxy-3-imino-7,8-dimethyl-[1,2,4]triazolo[4,3-b]pyridazin-2-yl)ethanone hydrochloride], for which the IC50 was 234 nM. As to `COCCCOc1cc(C(=O)Cn2nc3c(C)cc(OCCO)nn3c2=N)cc(C(C)(C)C)c1` [Example 101, 1-[3-tert-butyl-5-(3-methoxy-propoxy)phenyl]-2-[6-(2-hydroxyethoxy)-3-imino-8-methyl-[1,2,4]triazolo[4,3-b]pyridazin-2-yl]ethanone hydrochloride], the IC50 was 1400 nM.

With `CCN(CC)c1nn2c(=N)n(CC(=O)c3cc(OCCCO)c(OC)c(C(C)(C)C)c3)nc2c(C)c1C` [Example 186, 1-[3-tert-butyl-5-(3-hydroxy-propoxy)-4-methoxyphenyl]-2-(6-diethylamino-3-imino-7,8-methyl-[1,2,4]triazolo[4,3-b]pyridazin-2-yl)ethanone hydrochloride], the IC50 came out at 119 nM. Take `CC(C)Oc1cc(OC(C)C)c2nn(CC(=O)c3cc(OCCO)cc(C(C)(C)C)c3)c(=N)n2n1` [Example 240, 1-[3-tert-butyl-5-(2-hydroxy-ethoxy)phenyl]-2-(3-imino-6,8-diisopropoxy-[1,2,4]triazolo[4,3-b]pyridazin-2-yl)ethanone hydrochloride]: the IC50 is 484 nM. The value for `CCOc1nn2c(=N)n(CC(=O)c3cc(N4CCOCC4)c(OC)c(C(C)(C)C)c3)nc2cc1CC` [Example 144, 1-(3-tert-butyl-4-methoxy-5-morpholin-4-ylphenyl)-2-(6-ethoxy-7-ethyl-3-imino-[1,2,4]triazolo[4,3-b]pyridazin-2-yl)ethanone trifluoroacetic acid salt] was 827 nM; that for `CCOc1nn2c(=N)n(CC(=O)c3cc(OCCO)cc(C(C)(C)C)c3)nc2c(CC)c1C` [Example 221, 1-[3-tert-butyl-5-(2-hydroxy-ethoxy)phenyl]-2-(6-ethoxy-8-ethyl-3-imino-7-methyl-[1,2,4]triazolo[4,3-b]pyridazin-2-yl)ethanone hydrochloride] was 155 nM.

The values above are taken from patent US9079906B2, “Triazolopyridazines as PAR1 inhibitors, production thereof, and use as medicaments” (Sanofi, priority 2008, dated 2015).
